Source: patent publication US20240262845A1, “PYRIDINIUM SALTS, METHODS OF MAKING, AND METHODS OF USE” (UNIVERSITY OF WYOMING, priority 2023, published 2024)
Structures can show the parent of a compound that is named as a salt.

Assays:
lysozyme = molecular target: T1, lysozyme (Gallus gallus, UniProt P00698); test: Photochemical labeling of lysozyme with pyridinium salts (General Procedure B, LC/MS); type: biochemical, chicken; conditions: lysozyme labeling
T1 construct: Lysozyme (from chicken egg white, >40,000 units/mg of protein); purchased Sigma Aldrich; host or cells: chicken egg white
Protocol: General Procedure B: Photochemical Irradiation of Peptides and Proteins: To a 2 mL Pyrex LC/MS vial (Thermo model #03-391-39) were sequentially added solutions containing the desired biomolecule, glutathione (GSH), pyridinium salt, and ammonium acetate (NH4OAc). The resulting solution was diluted to a final volume of 500 μL and then sparged using nitrogen for a minimum of 30 minutes prior to irradiation. The actively sparging solution was then placed in an EvoluChem™ PhotoRedOx Box photoreactor that was equipped with a Kessil, PR160 427 nm LED Lamp and was then irradiated (100% lamp intensity) for the designated time at room temperature while maintaining active sparging. The resultant reaction mixture was then analyzed directly by LC/MS. Analysis of labeling outcomes using LC/MS was performed either by extracted ion chromatogram intensities (method A) or by integrating the area under the peaks associated with peptide content (method B). These values were totaled, and estimated percentages were assigned according to relative intensities of peaks or ion counts.
Labeling of Lysozyme with Pyridinium Salt 2a (Lysozyme-2a Conjugate). Labeling of lysozyme (14.3 kDa) with the pyridinium salt 2a was performed by following general procedure B using the following solutions: lysozyme (27 μL, 182 μM, 10 μM final concentration), pyridinium salt 2a (200 μL, 500 μM, 200 μM final concentration), NH4OAc (100 μL, 100 mM, pH=6.9, 20 mM final concentration), glutathione (15 μL, 10 mM, 300 μM final concentration), and water (158 μL) with a 100% intensity irradiation time of 60 minutes. The reaction mixture was analyzed directly by LC/MS using method A and was estimated to have proceeded in >95% conversion and a 10.9:1 mono:di labeled ratio and 10% glutathionylation of all unlabeled and labeled protein content was observed.
Labeling of Lysozyme with Pyridinium Salt 2b (Lysozyme-2b Conjugate). Labeling of lysozyme (14.3 kDa) with the pyridinium salt 2b was performed by following general procedure Busing the following solutions: lysozyme (19 μL, 262 μM, […]), 2b (181 μL, 554 μM, 200 μM final concentration), NH4OAc (50 μL, 200 mM, pH=6.9, 20 mM final concentration), glutathione (50 μL, 3 mM, 300 μM final concentration), and water (200 μL) with a 100% intensity irradiation time of 10 minutes. The reaction mixture was analyzed directly by LC/MS using method A and was estimated to have proceeded with 83% conversion. […]
Labeling of Lysozyme with Pyridinium Salt 2c (Lysozyme-2c Conjugate). […] The reaction mixture was analyzed directly by LC/MS using method A and was estimated to have proceeded with 85% conversion and a 3.7:1 mono:di labeled ratio and 10% glutathionylation of all protein content was observed. […]

HEK293T cells = test: In-situ chemoproteomic tryptophan profiling of live HEK293T cells; type: cell-based, human
Protocol: Cell culture and in-situ tryptophan probe treatment: Cell lines were cultured at 37° C. with 5% CO2. Human embryonic kidney 293 cells expressing a mutant version of the SV40 large T antigen (HEKT293T cells) were grown in Dulbecco's Modified Eagle Medium (DMEM, Gibco) supplemented with 10% fetal bovine serum and 1% penicillin/streptomycin. For in-situ labeling, cells were grown to 90% confluence, washed with Dulbecco's phosphate buffered saline (DPBS), treated with 100× stocks of the tryptophan probes (the pyridinium salts) in OptiMem (GibCo) to generate final concentrations (0 μM, 1 μM, 10 μM, and 100 μM) in 1% dimethylsulfoxide (DMSO). Cells were incubated for 1 hour at 37° C. with 5% CO2 followed by photo-activation at the respective wavelengths for 20 minutes at 4° C. Cells were harvested with a cell scraper, washed 3× with DPBS, and pellets were stored at −80° C. until further use. The following light sources were used for photo-activation:
In-situ tryptophan probe sample processing for peptide-level characterization: Cell pellets were lysed via sonication (QSonica) at 50% amplitude, 2 seconds ON, 3 seconds OFF, 30 seconds in 40 mM HEPES pH 7.5 (4-(2-hydroxyethyl)-1-piperazineethanesulfonic acid), 1.5 mM magnesium chloride (MgCl2), 1% Sodium dodecyl sulfate (SDS), 0.8% NP-40 (also known as nonyl phenoxypolyethoxylethanol), and 1× protease inhibitors (Thermo). Protein concentration was determined by BCA (Pierce). 400 μg protein lysate were taken for copper-catalyzed azide-alkyne cycloaddition (CuAAC) reactions with 100 μM of the acid cleavable DAPBS Biotin Alkyne (Click Chemistry Tools), 250 μM copper sulfate (CuSO4), 500 μM BTTP (C20H34N10O2) (Click Chemistry Tools), and 2.5 mM ascorbate and incubated for 60 minutes at R.T. Samples were precipitated with methanol:chloroform and re-suspended in 50 mM HEPES pH 8.0 containing 1% RapiGest SF (Waters). The samples were reduced with 10 mM dithiothreitol (DTT) (Pierce) and alkylated with 25 mM iodoacetamide (Pierce). The samples were diluted down to 0.1% RapiGest SF and treated with 4 μg Trypsin/LysC (Promega) at 37° C. for 16 hours. The digested peptides were than labeled with isobaric tandem mass tag (TMT) reagents (Thermo) as specified by the manufacturer. The labeled peptides were then combined, concentrated to remove acetonitrile, and re-suspended in 50 mM HEPES pH 8.0 containing 0.2% SDS. […]
Quantitative proteomics by two-dimensional nano liquid chromatography-tandem mass spectrometry (nLC-MS/MS): For protein-level characterization, the TMT-labeled sample were reconstituted in 0.1% formic acid (FA)/2% acetonitrile for offline high-pH reversed phase separation (RP10) using a Dionex UltiMate 3000 high-performance liquid chromatography (HPLC) system with fraction collection using Chromeleon v.6.8 (Thermo) software. […]

T1 sequence (P00698 19-147): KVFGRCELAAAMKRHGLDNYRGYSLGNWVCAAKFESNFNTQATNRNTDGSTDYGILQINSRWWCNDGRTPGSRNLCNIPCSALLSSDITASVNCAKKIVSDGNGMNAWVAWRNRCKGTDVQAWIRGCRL

- labeling rate compared to pyridinium salt 2a (lysozyme): enhance rates
- plasma membrane crossing / subcellular penetration (HEK293T cells; subcellular localization of modified proteins (UniProt)): readily crosses the plasma membrane
SMILES: COc1ccc2cc(-c3cc(C)[n+](N(C)C(=O)OCCCCCCN=[N+]=[N-])c(C)c3)ccc2c1 [pyridinium salt 2d, 1-((((6-azidohexyl)oxy)carbonyl)(methyl)amino)-4-(6-methoxynaphthalen-2-yl)-2,6-dimethylpyridin-1-ium tetrafluoroborate]
- Trp-modified peptide fragments detected showing dose response behavior (HEK293T cells; about 100 μM probe, 60 min 37° C., 440 nm 20 min 4° C., peptide-level enrichment): 290
- selectivity for tryptophan (HEK293T cells; taking relative amino acid frequency in human proteins into account, FIG. 19B): about 82%
- Western validation of NPM1 and PARP1 in enriched protein mixtures (HEK293T cells; varying concentrations, with and without blue light, protein-level enrichment): found to contain both proteins
